We go through four compounds from patent US9737075B2, “Synergistic benzoxaborole-containing anti-fungicidal composition” (The Penn State Research Foundation, priority 2015, dated 2017).

In brackets after ≈: the same amount, converted by molar mass.

Holding throughout (type): cell-based
In assay [1] the test system is Aspergillus flavus. As to the kind of experiment: Broth microdilution MIC of individual antifungals. As to conditions: individual antifungal, 25% PDB, about 25° C., 72 hours, range over N independent triplicate studies; for MIC: read-out: Independent MIC. In general terms: Broth dilution looks for growth in wells or tubes with falling amounts of substance.
In assay [2] the test system is Fusarium graminearum. As to the kind of experiment: microbe, parasite or virus in culture. As to conditions: Fusarium graminearum; for MIC: 72 h, read-out: Independent MIC.
Assay [3] has as its system Magnaporthe grisea. Description: microbe, parasite or virus in culture. The note with it: for MIC: Pyricularia oryzae, 72 h, read-out: Independent MIC.
Assay [4] deals with Mycosphaerella zeae-maydis. Description: Broth microdilution MIC of individual antifungals. As to conditions: individual antifungal, 25% PDB, about 25° C., 72 hours, range over N independent triplicate studies; for MIC: Didymella maydis.
Assay [5] concerns Phytophthora pini. Description: Broth microdilution MIC of individual antifungals. The note with it: individual antifungal, 25% PDB, about 25° C., 72 hours, range over N independent triplicate studies.
Assay [6] has as its system Mucor sp. As to the kind of experiment: Broth microdilution MIC of individual antifungals. The note with it: individual antifungal, 25% PDB, about 25° C., 72 hours, range over N independent triplicate studies.
The subject of assay [7] is Stachybotrys chartarum. As to the kind of experiment: Broth microdilution MIC of individual antifungals. The note with it: individual antifungal, 25% PDB, about 25° C., 72 hours, range over N independent triplicate studies; for MIC: read-out: Independent MIC.
Assay [8] deals with Botrytis cinerea 10-1728. Description: Broth microdilution MIC of individual antifungals. As to conditions: Botrytis cinerea 10-1728, individual antifungal, 25% PDB, about 25° C., 72 hours, range over N independent triplicate studies; for MIC: 101728, read-out: Independent MIC.
For assay [9], the system named is Aspergillus fumigatus. As to the kind of experiment: Broth microdilution MIC of individual antifungals. The note with it: individual antifungal, 25% PDB, about 25° C., 72 hours, range over N independent triplicate studies; for MIC: read-out: Independent MIC.
The test system of assay [10] is Fusarium solani f. sp. pisi (MP VI). As to the kind of experiment: Broth microdilution MIC of individual antifungals. The note with it: Fusarium solani f. sp. pisi (MP VI), individual antifungal, 25% PDB, about 25° C., 72 hours, range over N independent triplicate studies.
In assay [11] the test system is Botrytis cinerea B17. As to the kind of experiment: Broth microdilution MIC of individual antifungals. As to conditions: Botrytis cinerea B17, individual antifungal, 25% PDB, about 25° C., 72 hours, range over N independent triplicate studies; for MIC: read-out: Independent MIC.
Assay [12] relates to Rhizopus sp. Description: Broth microdilution MIC of individual antifungals. As to conditions: Rhizopus sp., individual antifungal, 25% PDB, about 25° C., 72 hours, range over N independent triplicate studies.
For assay [13], the system named is Fusarium verticillioides. Description: Broth microdilution MIC of individual antifungals. The note with it: individual antifungal, 25% PDB, about 25° C., 72 hours, range over N independent triplicate studies; for MIC: read-out: Independent MIC.
Assay [14] concerns Fusarium oxysporum f. sp. lycopersici. Description: Broth microdilution MIC of individual antifungals. As to conditions: individual antifungal, 25% PDB, about 25° C., 72 hours, range over N independent triplicate studies.
Assay [15] deals with Sclerotinia homoeocarpa. Description: Broth microdilution MIC of individual antifungals. As to conditions: Sclerotinia homoeocarpa, individual antifungal, 25% PDB, about 25° C., 72 hours, range over N independent triplicate studies; for MIC: Clarireedia homoeocarpa, read-out: Independent MIC.
Assay [16] has as its system Fusarium oxysporum ST33. As to the kind of experiment: Broth microdilution MIC of individual antifungals. The note with it: individual antifungal, 25% PDB, about 25° C., 72 hours, range over N independent triplicate studies.
The subject of assay [17] is Pythium aphanodermatum. As to the kind of experiment: Broth microdilution MIC of individual antifungals. As to conditions: individual antifungal, 25% PDB, about 25° C., 72 hours, range over N independent triplicate studies.
In assay [18] the test system is Alternaria solani. Description: Broth microdilution MIC of individual antifungals. As to conditions: individual antifungal, 25% PDB, about 25° C., 72 hours, range over N independent triplicate studies.
Assay [19] deals with Candida albicans. Description: Broth microdilution MIC of individual antifungals. As to conditions: individual antifungal, 25% PDB, about 25° C., 72 hours, range over N independent triplicate studies.
The test system of assay [20] is Aspergillus niger. Description: Broth microdilution MIC of individual antifungals. As to conditions: individual antifungal, 25% PDB, about 25° C., 72 hours, range over N independent triplicate studies; for MIC: read-out: Independent MIC.
In assay [21] the test system is Aureobasidium pullulans. Description: Broth microdilution MIC of individual antifungals. The note with it: individual antifungal, 25% PDB, about 25° C., 72 hours, range over N independent triplicate studies; for MIC: read-out: Independent MIC.
Assay [22] has as its system Penicillium chrysogenum. As to the kind of experiment: Broth microdilution MIC of individual antifungals. As to conditions: individual antifungal, 25% PDB, about 25° C., 72 hours, range over N independent triplicate studies; for MIC: read-out: Independent MIC.
Assay [23] has as its system Colletotrichum orbiculare. As to the kind of experiment: Broth microdilution MIC of individual antifungals. As to conditions: individual antifungal, 25% PDB, about 25° C., 72 hours, range over N independent triplicate studies.

Consider `Cc1cc(C)nc(Nc2ccccc2)n1` [Pyrimethanil, pyrimethanil], for which the MIC in assay [1] was 25 µg/mL; in assay [2] it was 200 µg/mL (≈ 1000 µM); in [3], 100 to 200 µg/mL (≈ 502 to 1000 µM); in assay [4] it was 6.25 to 12.5 µg/mL; in [5], 100 µg/mL; in assay [6] it was 200 µg/mL. For the same compound, the MIC lay within 50 to 90 µg/mL in [7]; 50 to 100 µg/mL in assay [8]; 0.78 to 1 µg/mL in [9]; 200 to 400 µg/mL in [10] (read-out: Independent MIC); 50 to 100 µg/mL in assay [11]; 200 to 400 µg/mL in assay [12] (Rhizopus, 72 h, read-out: Independent MIC). In addition, the MIC in [13] is 200 µg/mL; in [14] it was 200 µg/mL; in [15], 50 to 100 µg/mL; in assay [16], 200 µg/mL; in assay [17], 100 to 200 µg/mL; in [18] (read-out: Independent MIC) it was 100 to 200 µg/mL. Moreover, the MIC in [19] (read-out: Independent MIC) was 200 µg/mL; in [20], 100 to 200 µg/mL; in assay [21] it was 25 to 50 µg/mL.
As to `c1ccc2[nH]c(-c3cscn3)nc2c1` [Thiabendazole], the MIC in assay [1] was 12.5 to 40 µg/mL; in assay [2] it was 1.5 to 3.12 µg/mL (≈ 7.45 to 15.5 µM); in assay [3], 1.56 to 3.13 µg/mL (≈ 7.75 to 15.6 µM); in [4] it was 12.5 to 25 µg/mL; in [5], 100 µg/mL; in [7], 25 to 30 µg/mL. Also, the MIC in assay [8] was 200 to 400 µg/mL; in assay [9], 12.5 to 50 µg/mL; in [22], 0.375 to 0.39 µg/mL; in [11], 50 µg/mL; in assay [13], 3 to 6.25 µg/mL; in assay [14], 200 to 400 µg/mL. For the same compound, the MIC in [15] lay within 20 to 25 µg/mL; in assay [16], 25 to 80 µg/mL; in assay [17] it was 200 to 400 µg/mL; in assay [20] it was 12.5 to 50 µg/mL; in [21] it was 0.2 to 0.39 µg/mL.
For `COC(=O)NC(=S)Nc1ccccc1NC(=S)NC(=O)OC` [Thiophanate-Methyl, thiophanate-methyl], the MIC in assay [2] was 100 to 400 µg/mL (≈ 292 to 1170 µM); in assay [3] it was 25 to 50 µg/mL (≈ 73 to 146 µM); in assay [4], 25 to 50 µg/mL; in [5], 25 µg/mL; in assay [6] it was 200 to 400 µg/mL; in assay [8], 200 to 400 µg/mL. Also, the MIC in assay [9] was 50 to 100 µg/mL; in assay [22] it was 12.5 µg/mL; in assay [15], 0.5 to 1 µg/mL; in [17], 400 µg/mL; in [20] it was 25 µg/mL; in assay [21] it was 0.1 to 0.39 µg/mL.
On to mancozeb, for which the “Independent MIC” value in assay [1] was “(6.25-25)^ μg/mL”; in [2] (individual antifungal, 25% PDB, about 25° C., 72 hours, range over N independent triplicate studies) it was 12.5 µg/mL; in assay [3] (Magnaporthe grisea, individual antifungal, 25% PDB, about 25° C., 72 hours, range over N independent triplicate studies), 6.25 µg/mL; in assay [4], “(3.125-8) ^ μg/mL”; in assay [5], 0.39 µg/mL; in assay [6], “(50-100) μg/mL”. The “Independent MIC” value in [7] was “(3.125-6.25) μg/mL”; in [8], 3.125 µg/mL; in [9], 100 µg/mL; in [10], 100 µg/mL; in assay [22], “(6.25-12.5) μg/mL”; in assay [11], “(32-64) μg/mL”. The “Independent MIC” value in [12] is on record as “(25-80) μg/mL”; in [13] it was “(4-8) μg/mL”; in assay [14] it was “(6-12.5) μg/mL”; in assay [15], “(8-20) μg/mL”; in assay [16] it was “(32-80) μg/mL”; in assay [17], “(28-50) μg/mL”. Moreover, the “Independent MIC” value was “(10-12.5) μg/mL” in [18]; 50 µg/mL in [19]; “(25-50) μg/mL” in [20]; “(6.25-12.5) μg/mL” in [23]; “(6.25-12.5) μg/mL” in assay [21].
